How the values were obtained:
[1] = Cytotoxicity against human […] cells; assay type: cell-based
MCF7 = experiment: Cytotoxicity against human MCF7 cells; assay type: functional, cell-based
MDA-MB-231 = experiment: Cytotoxicity against human MDA-MB-231 cells; assay type: functional, cell-based

SMILES | IC50 [1] [µM] | IC50 (MCF7) [µM] | IC50 (MDA-MB-231) [µM]
CC(=O)O[C@H]1C(=O)[C@@]2(C)[C@H]([C@H](OC(=O)c3ccccc3)[C@]3(O)C[C@H](OC(=O)[C@H](O)[C@@H](NC(=O)c4ccccc4)c4ccccc4)C(C)=C1C3(C)C)[C@]1(OC(C)=O)CO[C@@H]1C[C@@H]2O [PACLITAXEL] | 27 | – | –
C=C1[C@H]2C[C@@H]3C[C@H](OC(C)=O)C(C)=C([C@@H](OC(C)=O)[C@H](OC(C)=O)[C@]2(C)[C@@H](OC(C)=O)C[C@@H]1O)C3(C)C | > 50 | > 50 | > 50
